Measured values taken from article PMC8253220, “Molecular design, synthesis and in vitro biological evaluation of thienopyrimidine–hydroxamic acids as chimeric kinase HDAC inhibitors: a challenging approach to combat cancer” (Journal of Enzyme Inhibition and Medicinal Chemistry, 2021).
“And” between values parts separate entries of the source, which are not always exact repeats. Identical values can stand only once.

Experiments:
Assay in all cases: NCI one-dose screen
Assay type in all cases: cell-based, human
SF-268 = details: CNS SF-268, 10 µM single dose
Protocol: (§1) All of the synthesised structures were selected and submitted to NCI based on computer modelling techniques and the degree of diversity of structures for the evaluation of their antiproliferative activity. The 20 synthesised compounds were selected with their respective NCI codes [NCS D-820157- NCS D-820176] for the inhibition percent assay at an initial single dose of 10 μM on the full NCI 60 cell panel, where the mean graph of the percent growth for all compounds on the full NCI cell panel is evaluated, compared to the untreated control cells (Supplementary Material). In vitro cell line inhibition % of all synthesised compounds is represented in (Table 1 of Supplementary Material).
(§2) All of the synthesised compounds (20) were submitted to NCI and selected for in vitro anticancer assay against a panel of 60 cancer cell lines. The methodology of assay and calculations is as reported.

MCF7 = details: Breast MCF7, 10 µM single dose
Protocol: as §1, §2

CAKI-1 = details: Renal CAKI-1, 10 µM single dose
Protocol: as §1, §2

COLO 205 = details: Colon COLO 205, 10 µM single dose
Protocol: as §1, §2

786-0 = details: Renal 786-0, 10 µM single dose
Protocol: as §1, §2

HCT-116 = details: Colon HCT-116, 10 µM single dose
Protocol: as §1, §2

SF-295 = details: CNS SF-295, 10 µM single dose
Protocol: as §1, §2

LOX IMVI = details: Melanoma LOX IMVI, 10 µM single dose
Protocol: as §1, §2

TK-10 = details: Renal TK-10, 10 µM single dose
Protocol: as §1, §2

NCI-H226 = details: for Growth Percent: NSCLC NCI-H226, 10 µM single dose
Protocol: as §1, §2

MOLT-4 = details: Leukemia MOLT-4, 10 µM single dose
Protocol: as §1, §2

KM12 = details: Colon KM12, 10 µM single dose
Protocol: as §1, §2

HOP-62 = details: NSCLC HOP-62, 10 µM single dose
Protocol: as §1, §2

T-47D = details: Breast T-47D, 10 µM single dose
Protocol: as §1, §2

RXF 393 = details: Renal RXF 393, 10 µM single dose
Protocol: as §1, §2

NCI-H522 = details: for Growth Percent: NSCLC NCI-H522, 10 µM single dose
Protocol: as §1, §2

SW-620 = details: Colon SW-620, 10 µM single dose
Protocol: as §1, §2

OVCAR-3 = details: Ovarian OVCAR-3, 10 µM single dose
Protocol: as §1, §2

MALME-3M = details: Melanoma MALME-3M, 10 µM single dose
Protocol: as §1, §2

DU-145 = details: Prostate DU-145, 10 µM single dose
Protocol: as §1, §2

MDA-MB-231/ATCC = details: Breast MDA-MB-231/ATCC, 10 µM single dose
Protocol: as §1, §2

SK-OV-3 = details: Ovarian SK-OV-3, 10 µM single dose
Protocol: as §1, §2

SK-MEL-2 = details: Melanoma SK-MEL-2, 10 µM single dose
Protocol: as §1, §2

UACC-62 = details: Melanoma UACC-62, 10 µM single dose
Protocol: as §1, §2

A549/ATCC = details: NSCLC A549/ATCC, 10 µM single dose
Protocol: as §1, §2

EKVX = details: NSCLC EKVX; for Growth Percent: 10 µM single dose
Protocol: as §1, §2

SF-539 = details: CNS SF-539, 10 µM single dose
Protocol: as §1, §2

HOP-92 = details: NSCLC HOP-92, 10 µM single dose
Protocol: as §1, §2

SR = details: Leukemia SR, 10 µM single dose
Protocol: as §1, §2

RPMI-8226 = details: Leukemia RPMI-8226, 10 µM single dose
Protocol: as §1, §2

HS 578T = details: Breast HS 578T, 10 µM single dose
Protocol: as §1, §2

SNB-19 = details: CNS SNB-19, 10 µM single dose
Protocol: as §1, §2

IGROV1 = details: Ovarian IGROV1, 10 µM single dose
Protocol: as §1, §2

M14 = details: Melanoma M14, 10 µM single dose
Protocol: as §1, §2

HCC-2998 = details: Colon HCC-2998, 10 µM single dose
Protocol: as §1, §2

ACHN = details: Renal ACHN, 10 µM single dose
Protocol: as §1, §2

UACC-257 = details: Melanoma UACC-257, 10 µM single dose
Protocol: as §1, §2

Row | SMILES | Growth Percent (SF-268) | Growth Percent (MCF7) | Growth Percent (CAKI-1) | Growth Percent (COLO 205) | Growth Percent (786-0) | Growth Percent (HCT-116) | Growth Percent (SF-295) | Growth Percent (LOX IMVI) | Growth Percent (TK-10) | Growth Percent (NCI-H226) | Growth Percent (MOLT-4) | Growth Percent (KM12) | Growth Percent (HOP-62) | Growth Percent (T-47D) | Growth Percent (RXF 393) | Growth Percent (NCI-H522) | Growth Percent (SW-620) | Growth Percent (OVCAR-3) | Growth Percent (MALME-3M) | Growth Percent (DU-145) | also measured
1 | Cc1c(C(=O)NCCCC(=O)NO)sc2ncnc(Nc3ccc(F)c(Cl)c3)c12 [Compound 20d, 4–(3-chloro-4-fluorophenylamino)-N-(4-(hydroxyamino)-4-oxobutyl)-5-methylthieno[2,3-d]pyrimidine-6-carboxamide] | 95.2% | 91.4% and 91.48% | 92.1% and 92.19% | 119.1% and 119.14% | 104.6% and 104.67% | 105.9% and 105.97% | 101.9% | 96.3% | 124.1% and 124.14% | 88.7% and 88.71% | 109.8% and 109.84% | 101.5% and 101.54% | 105.6% and 105.66% | 112.6% and 112.64% | 102.5% and 102.57% | 92.6% and 92.67% | 103.1% and 103.17% | 108.4% and 108.42% | 115.8% and 115.88% | 109.9% and 109.99% | inhibition at 10 µM (NCI-H226; Homo sapiens, NSCLC NCI-H226, 10 μM): 11.3%; Growth Percent (MDA-MB-231/ATCC): 99.7% and 99.77%; Growth Percent (SK-OV-3): 122.6% and 122.66%; Growth Percent (SK-MEL-2): 113.2% and 113.22%; Growth Percent (UACC-62): 93.7% and 93.74%; Growth Percent (A549/ATCC): 94.0% and 94.08%; Growth Percent (EKVX): 94.4% and 94.41%; Growth Percent (SF-539): 100.8% and 100.82%; Growth Percent (HOP-92): 118.7% and 118.75%; Growth Percent (SR): 110.0% and 110.02%; Growth Percent (RPMI-8226): 108.7% and 108.75%; Growth Percent (HS 578T): 99.9% and 99.99%; Growth Percent (SNB-19): 98.1% and 98.16%; Growth Percent (IGROV1): 98.9% and 98.94%; Growth Percent (M14): 102.6%; Growth Percent (HCC-2998): 104.1% and 104.19%; Growth Percent (ACHN): 102.2% and 102.28%; Growth Percent (UACC-257): 103%
2 | Cc1c(C(=O)NO)sc2ncnc(Nc3ccc(Cl)cc3)c12 [Compound 15c, 4–(4-chlorophenylamino)-N-hydroxy-5-methylthieno[2,3-d]pyrimidine-6-carboxamide] | 94.8% and 94.84% | 88.6% | 86.4% and 86.45% | 116.7% and 116.75% | 108.7% and 108.78% | 100.9% and 100.92% | 102.7% and 102.79% | 95.8% and 95.88% | 154.5% and 154.58% | 85.6% and 85.66% | 102.3% and 102.36% | 100.9% and 100.92% | 92.8% and 92.81% | 90.6% and 90.65% | 106.7% and 106.75% | 74.5% and 74.57% | 102.6% and 102.65% | 98.9% and 98.94% | 102.3% and 102.31% | 108.8% and 108.86% | inhibition at 10 µM (NCI-H522; Homo sapiens, NSCLC NCI-H522, 10 μM): 25.4%; Growth Percent (MDA-MB-231/ATCC): 88.1% and 88.18%; Growth Percent (SK-OV-3): 93.4% and 93.42%; Growth Percent (SK-MEL-2): 94.5% and 94.54%; Growth Percent (UACC-62): 92.4% and 92.45%; Growth Percent (A549/ATCC): 105.8% and 105.88%; inhibition at 10 µM (EKVX; Homo sapiens, 10 μM): 20.6%; Growth Percent (EKVX): 79.4% and 79.43%; Growth Percent (SF-539): 104.0%; Growth Percent (HOP-92): 101.5% and 101.51%; Growth Percent (SR): 102.7% and 102.79%; Growth Percent (RPMI-8226): 104.3% and 104.38%; Growth Percent (HS 578T): 102.5% and 102.54%; Growth Percent (SNB-19): 94.8% and 94.85%; Growth Percent (IGROV1): 72.7% and 72.73%; Growth Percent (M14): 107.8% and 107.86%; Growth Percent (HCC-2998): 115.4% and 115.42%; Growth Percent (ACHN): 97.3% and 97.37%; Growth Percent (UACC-257): 110.0% and 110.09%
3 | COc1cccc(NC(=O)Nc2ccc(Nc3ncnc4sc(C(=O)NO)c(C)c34)cc2)c1 [Compound 7b, 1–(4-(6-(hydroxycarbamoyl)-5-methylthieno[2,3-d]pyrimidin-4-ylamino)phenyl)-3–(3-methoxyphenyl)urea] | 93.3% and 93.33% | 95.2% and 95.27% | 99.4% and 99.45% | 114.4% and 114.44% | 100.6% and 100.62% | 102.7% and 102.72% | 94.5% and 94.51% | 94.1% and 94.14% | 103.9% and 103.96% | 94.5% and 94.51% | 112.4% and 112.45% | 102.7% and 102.79% | 101.6% and 101.62% | 99.6% and 99.67% | 104.4% | 90.2% and 90.28% | 101.2% and 101.24% | 106.5% and 106.55% | 101.9% and 101.92% | 103.1% and 103.17% | Growth Percent (MDA-MB-231/ATCC): 99.5% and 99.59%; Growth Percent (SK-OV-3): 128.5% and 128.59%; Growth Percent (SK-MEL-2): 100.6% and 100.68%; Growth Percent (UACC-62): 96.7% and 96.74%; Growth Percent (A549/ATCC): 101.8% and 101.81%; Growth Percent (EKVX): 92.8% and 92.81%; Growth Percent (SF-539): 97.2% and 97.26%; Growth Percent (HOP-92): 108.4% and 108.42%; Growth Percent (SR): 115.8% and 115.82%; Growth Percent (RPMI-8226): 110.6% and 110.62%; Growth Percent (HS 578T): 102.4% and 102.45%; Growth Percent (SNB-19): 100.1% and 100.14%; Growth Percent (IGROV1): 106.5% and 106.51%; Growth Percent (M14): 101.0% and 101.01%; Growth Percent (HCC-2998): 103.6% and 103.61%; Growth Percent (ACHN): 103.7% and 103.71%; Growth Percent (UACC-257): 100.8% and 100.87%
